Test results taken from patent US11746100B2 (GLOBAL BLOOD THERAPEUTICS, INC., priority 2020, dated 2023).

These molecules were tested against T1, human ferroportin (Homo sapiens, UniProt Q9NP59) (assay: Biological in-vitro ferroportin internalization assay (luciferase reporter)). Conditions: average pEC50; stably-transfected CHO cell line expressing human ferroportin tagged to a luciferase reporter; 6 h incubation with test compound.
T1 construct: luciferase reporter (read with the Nano-Glo Luciferase Assay System); expressed in transfected cells; host or cells: CHO cells, stably transfected, expression induced with doxycycline
T1 sequence (Q9NP59 1-571): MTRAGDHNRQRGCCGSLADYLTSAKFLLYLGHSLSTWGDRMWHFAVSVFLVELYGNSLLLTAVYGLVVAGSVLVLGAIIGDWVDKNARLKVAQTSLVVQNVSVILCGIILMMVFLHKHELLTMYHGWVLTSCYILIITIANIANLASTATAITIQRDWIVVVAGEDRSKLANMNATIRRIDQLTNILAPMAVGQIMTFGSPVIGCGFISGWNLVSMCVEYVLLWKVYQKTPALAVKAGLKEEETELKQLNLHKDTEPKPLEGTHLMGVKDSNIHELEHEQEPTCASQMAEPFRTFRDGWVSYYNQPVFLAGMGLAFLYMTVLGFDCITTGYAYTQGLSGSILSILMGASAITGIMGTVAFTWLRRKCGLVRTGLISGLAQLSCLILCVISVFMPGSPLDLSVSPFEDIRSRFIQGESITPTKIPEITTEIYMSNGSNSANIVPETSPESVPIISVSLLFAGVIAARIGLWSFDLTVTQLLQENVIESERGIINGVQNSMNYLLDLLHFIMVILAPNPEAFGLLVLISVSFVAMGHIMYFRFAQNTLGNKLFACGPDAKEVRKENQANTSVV
Type: cell-based
Method in brief: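 Read-out is Nano-Glo luciferase signal after 6 h compound exposure, with average pEC50 derived. Cells are a stable CHO line carrying luciferase-tagged human ferroportin, pre-loaded 24 h with ferric ammonium citrate and doxycycline-induced for 24 h.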
With `COc1ccnc(-c2nc3c(c(N4CCCO[C@@H]5CCC[C@@H]54)n2)CCC3)c1` [Compound 54, 2-{4-[(5aS,8aR)-octahydro-2H-cyclopenta[b][1,4]oxazepin-5-yl]-5H,6H,7H-cyclopenta[d]pyrimidin-2-yl}-4-methoxypyridine] the pEC50 was 6.9. `CN(C)CC(C)(C)Oc1ccnc(-c2nc3c(c(N(C)CC(=O)NC(C)(C)C)n2)CCC3)c1` [Compound 407, N-tert-butyl-2-{[2-(4-{[1-(dimethylamino)-2-methylpropan-2-yl]oxy}pyridin-2-yl)-5H,6H,7H-cyclopenta[d]pyrimidin-4-yl](methyl)amino}acetamide] was tested, and the pEC50 was 6.6. In the case of `CN(CC(=O)N1CCCCC1)c1nc(-c2cc(O[C@@H]3CCOC3)ccn2)nc2c1CCC2` [Compound 342, 2-[methyl(2-{4-[(3R)-oxolan-3-yoxy]pyridin-2-yl}-5H,6H,7H-cyclopenta[d]pyrimidin-4-yl)amino]-1-(piperidin-1-yl)ethan-1-one], the pEC50 is reported as 7.6. Work on `CN(Cc1ncn(-c2cccc(F)c2)n1)c1nc(-c2cc(OCCO)ccn2)nc2c1CCC2` [Compound 351, 2-({2-[4-({[1-(3-fluorophenyl)-1H-1,2,4-triazol-3-yl]methyl}(methyl)amino)-5H,6H,7H-cyclopenta[d]pyrimidin-2-yl]pyridin-4-yl}oxy)ethan-1-ol] yielded a pEC50 of 7.6. `CC(C)NC(=O)CN(C)c1nc(-c2cc(OCC3(O)CC3)ccn2)nc2c1CCC2` [Compound 431, 2-[(2-{4-[(1-hydroxycyclopropyl)methoxy]pyridin-2-yl}-5H,6H,7H-cyclopenta[d]pyrimidin-4-yl)(methyl)amino]-N-(propan-2-yl)acetamide] showed a pEC50 of 7.4. Work on `CN(CC(=O)NC1CCOCC1)c1nc(-c2cc(OCCO)ccn2)nc2c1CCC2` [Compound 140, 2-({2-[4-(2-hydroxyethoxy)pyridin-2-yl]-5H,6H,7H-cyclopenta[d]pyrimidin-4-yl}(methyl)amino)-N-(oxan-4-yl)acetamide] yielded a pEC50 of 7. `CN(CC(=O)NC(C)(C)C)c1nc(-c2cc(OCC3(O)CCC3)ccn2)nc2c1CCC2` [Compound 388, N-tert-butyl-2-[(2-{4-[(1-hydroxycyclobutyl)methoxy]pyridin-2-yl}-5H,6H,7H-cyclopenta[d]pyrimidin-4-yl)(methyl)amino]acetamide] was tested, and the pEC50 was 8.2. Work on `CN(C)CCOc1ccnc(-c2cc(N(C)CC(=O)NC(C)(C)C)c3c(n2)CCC3)c1` [Compound 495, N-tert-butyl-2-[(2-{4-[2-(dimethylamino)ethoxy]pyridin-2-yl}-5H,6H,7H-cyclopenta[b]pyridin-4-yl)(methyl)amino]acetamide] yielded a pEC50 of 7.4. For `CN1CCC[C@@H](Oc2ccnc(-c3nc4c(c(N(C)CC(=O)NC(C)(C)C)n3)CCC4)c2)C1` [Compound 489, N-tert-butyl-2-{methyl[2-(4-{[(3R)-1-methylpiperidin-3-yl]oxy}pyridin-2-yl)-5H,6H,7H-cyclopenta[d]pyrimidin-4-yl]amino}acetamide], the pEC50 was 8.2. Work on `CCN(CC(=O)NC(C)(C)C)c1nc(-c2cc(OC)ccn2)nc2c1CCC2` [Compound 126, N-tert-butyl-2-{ethyl[2-(4-methoxypyridin-2-yl)-5H,6H,7H-cyclopenta[d]pyrimidin-4-yl]amino}acetamide] yielded a pEC50 of 7.9. For `COc1ccc(NC(=O)CN(C)c2nc(-c3cn(C)cn3)nc3c2CCC3)cn1` [Compound 201, N-(6-methoxypyridin-3-yl)-2-{methyl[2-(1-methyl-1H-imidazol-4-yl)-5H,6H,7H-cyclopenta[d]pyrimidin-4-yl]amino}acetamide], the pEC50 was 7.4. Work on `c1ccc(-c2nc3c(c(N4CC5CC4CO5)n2)CCC3)nc1` (centres unmarked) [Compound 72, 5-[2-(pyridin-2-yl)-5H,6H,7H-cyclopenta[d]pyrimidin-4-yl]-2-oxa-5-azabicyclo[2.2.1]heptane] yielded a pEC50 of 5.5. In the case of `CN(CC(=O)NC(C)(C)C)c1nc(-c2cc(O[C@@H]3CCN(CC(F)F)C3)ccn2)nc2c1CCC2` [Compound 491, N-tert-butyl-2-{[2-(4-{[(3R)-1-(2,2-difluoroethyl)pyrrolidin-3-yl]oxy}pyridin-2-yl)-5H,6H,7H-cyclopenta[d]pyrimidin-4-yl](methyl)amino}acetamide], the pEC50 is reported as 8.2. Molecule `CN(CC(=O)NC(C)(C)C)c1nc(-c2cc(CCO)ccn2)nc2c1CCC2` [Compound 113, N-tert-butyl-2-({2-[4-(2-hydroxyethyl)pyridin-2-yl]-5H,6H,7H-cyclopenta[d]pyrimidin-4-yl}(methyl)amino)acetamide] has a pEC50 of 7.7. With `CN(CC(=O)N1CCCCC1)c1nc(-c2ccccn2)nc2c1CCC2` [Compound 88, 2-{methyl[2-(pyridin-2-yl)-5H,6H,7H-cyclopenta[d]pyrimidin-4-yl]amino}-1-(piperidin-1-yl)ethan-1-one] the pEC50 was 7.1. With `CN(CC(=O)N1CCCCC1)c1nc(-c2cc(O[C@H]3CCOC3)ccn2)nc2c1CCC2` [Compound 343, 2-[methyl(2-{4-[(3S)-oxolan-3-yloxy]pyridin-2-yl}-5H,6H,7H-cyclopenta[d]pyrimidin-4-yl)amino]-1-(piperidin-1-yl)ethan-1-one] the pEC50 was 7.7. With `CN(CC(=O)NC(C)(C)C)c1nc(-c2cc3ncsc3cn2)nc2c1CCC2` [Compound 328, N-tert-butyl-2-[methyl(2-{[1,3]thiazolo[5,4-c]pyridin-6-yl}-5H,6H,7H-cyclopenta[d]pyrimidin-4-yl)amino]acetamide] the pEC50 was 6.8. Work on `CN(CC(=O)Nc1ccc(OC(F)(F)F)nc1)c1nc(-c2cc3ccccc3cn2)nc2c1CCC2` [Compound 234, 2-{[2-(isoquinolin-3-yl)-5H,6H,7H-cyclopenta[d]pyrimidin-4-yl](methyl)amino}-N-[6-(trifluoromethoxy)pyridin-3-yl]acetamide] yielded a pEC50 of 6.4. `CN(CC(=O)Nc1ccc(F)cc1)c1nc(-c2cc3cn[nH]c3cn2)nc2c1CCC2` [Compound 289, N-(4-fluorophenyl)-2-[methyl(2-{1H-pyrazolo[3,4-c]pyridin-5-yl}-5H,6H,7H-cyclopenta[d]pyrimidin-4-yl)amino]acetamide] was tested, and the pEC50 was 7.5. For `CN(CC(=O)NC1(C)CCC1)c1nc(-c2cc(OCCO)ccn2)nc2c1CCC2` [Compound 376, 2-({2-[4-(2-hydroxyethoxy)pyridin-2-yl]-5H,6H,7H-cyclopenta[d]pyrimidin-4-yl}(methyl)amino)-N-(1-methylcyclobutyl)acetamide], the pEC50 was 8. `CCN(CC(=O)NC(C)(C)C)c1nc(-c2cc(OCCO)ccn2)nc2c1CCC2` [Compound 360, N-tert-butyl-2-[ethyl({2-[4-(2-hydroxyethoxy)pyridin-2-yl]-5H,6H,7H-cyclopenta[d]pyrimidin-4-yl})amino]acetamide] was tested, and the pEC50 was 7.8. With `C[C@H](C(=O)NC(C)(C)C)N(C)c1nc(-c2cc(OC3COC3)ccn2)nc2c1CCC2` [Compound 305] the pEC50 was 7.8. For `CN(CC(=O)NC1CCCCC1)c1nc(-c2cn(C)cn2)nc2c1CCC2` [Compound 142, N-cyclohexyl-2-{methyl[2-(1-methyl-1H-imidazol-4-yl)-5H,6H,7H-cyclopenta[d]pyrimidin-4-yl]amino}acetamide], the pEC50 was 7.4. `CN(CC(=O)Nc1cccc(F)c1)c1nc(-c2cn(C)cn2)nc2c1CCC2` [Compound 271, N-(3-fluorophenyl)-2-{methyl[2-(1-methyl-1H-imidazol-4-yl)-5H,6H,7H-cyclopenta[d]pyrimidin-4-yl]amino}acetamide] gave a pEC50 of 7.4. `CN(CC(=O)Nc1ccc(F)cc1)c1nc(-c2cc3cnn(C)c3cn2)nc2c1CCC2` [Compound 313, N-(4-fluorophenyl)-2-[methyl(2-{1-methyl-1H-pyrazolo[3,4-c]pyridin-5-yl}-5H,6H,7H-cyclopenta[d]pyrimidin-4-yl)amino]acetamide] showed a pEC50 of 7.3. `CN(CC(=O)NC1CCCC1)c1nc(-c2cc(OCC(C)(C)O)ccn2)nc2c1CCC2` [Compound 421, N-cyclopentyl-2-({2-[4-(2-hydroxy-2-methylpropoxy)pyridin-2-yl]-5H,6H,7H-cyclopenta[d]pyrimidin-4-yl}(methyl)amino)acetamide] was tested, and the pEC50 was 8.2. `CC(C)(O)COc1ccnc(-c2nc3c(c(NCC(=O)NC(C)(C)C)n2)CCC3)c1` [Compound 409, N-tert-butyl-2-({2-[4-(2-hydroxy-2-methylpropoxy)pyridin-2-yl]-5H,6H,7H-cyclopenta[d]pyrimidin-4-yl}amino)acetamide] gave a pEC50 of 7.6. Molecule `CC(C)NC(=O)[C@@H](C)N(C)c1nc(-c2cc(OCC(C)(C)O)ccn2)nc2c1CCC2` [Compound 453, (2R)-2-({2-[4-(2-hydroxy-2-methylpropoxy)pyridin-2-yl]-5H,6H,7H-cyclopenta[d]pyrimidin-4-yl}(methyl)amino)-N-(propan-2-yl)propanamide] has a pEC50 of 8.1. Molecule `CN(C)CCOc1ccnc(-c2nc3c(c(N(C)CC(=O)N[C@@H]4CCOC4)n2)CCC3)c1` [Compound 424, 2-[(2-{4-[2-(dimethylamino)ethoxy]pyridin-2-yl}-5H,6H,7H-cyclopenta[d]pyrimidin-4-yl)(methyl)amino]-N-[(3R)-oxolan-3-yl]acetamide] has a pEC50 of 7.
